The target in the test is T1, PPARγ (peroxisome proliferator-activated receptor gamma) (Homo sapiens, UniProt P37231).
T1 construct: gene PPARG; full-length human PPARγ
T1 sequence (P37231 1-505): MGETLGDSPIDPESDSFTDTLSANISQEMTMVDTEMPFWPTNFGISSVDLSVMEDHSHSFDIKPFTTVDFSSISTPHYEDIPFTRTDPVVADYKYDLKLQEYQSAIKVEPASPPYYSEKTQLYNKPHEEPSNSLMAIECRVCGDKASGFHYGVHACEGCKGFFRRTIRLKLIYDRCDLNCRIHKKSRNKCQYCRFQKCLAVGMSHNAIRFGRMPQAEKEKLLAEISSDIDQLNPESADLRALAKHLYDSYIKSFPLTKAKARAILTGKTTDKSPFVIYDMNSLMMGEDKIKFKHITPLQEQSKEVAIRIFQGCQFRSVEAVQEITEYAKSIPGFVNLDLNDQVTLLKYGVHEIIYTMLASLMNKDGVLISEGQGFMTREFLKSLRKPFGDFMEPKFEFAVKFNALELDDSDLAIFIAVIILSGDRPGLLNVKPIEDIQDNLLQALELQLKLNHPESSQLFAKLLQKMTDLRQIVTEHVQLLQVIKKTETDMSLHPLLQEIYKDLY
Nature of the test: luciferase reporter gene transactivation in HEK293 cells transfected with PPARγ. Type of test: cell-based.

As a reminder, the EC50 is the concentration that produces a half-maximal response.

The compound `C=C[C@@H](O)C#CC#C[C@H](/C=C\CCCCCCC)OC(=O)/C=C/c1ccc(O)c(OC)c1` [3R,8S-1, (3R,8S)-Notoincisol A] had an EC50 of 1200 nM.

For the origin of these results see PMC6256351, “Stereoselective Synthesis of the Isomers of Notoincisol A: Assigment of the Absolute Configuration of this Natural Product and Biological Evaluation” (Journal of Natural Products, 2018).
